25 compounds from patent US9512141B2, “Pyrazine derivatives as CB2 receptor agonists” (Hoffmann-La Roche Inc., priority 2012, dated 2016) can be followed below.

For one experiment, the target named is human CB1 receptors (Homo sapiens (Human), UniProt P21554). The experiment can be described thus: cAMP assay (functional), CHO cells expressing human CB1 receptors. It is filed as cell-based. The settings on record: functional cAMP assay, CHO cells expressing human CB1; read-out: human CB1 EC50. Here is the method:
(§1) CHO cells expressing human CB1 or CB2 receptors are seeded 17-24 hours prior to the experiment 50.000 cells per well in a black 96 well plate with flat clear bottom (Corning Costar #3904) in DMEM (Invitrogen No. 31331), 1×HT supplement, with 10% fetal calf serum and incubated at 5% CO2 and 37° C. in a humidified incubator. The growth medium was exchanged with Krebs Ringer Bicarbonate buffer with 1 mM IBMX and incubated at 30° C. for 30 min. Compounds were added to a final assay volume of 100 μl and incubated for 30 min at 30° C. Using the cAMP-Nano-TRF detection kit the assay (Roche Diagnostics) was stopped by the addition of 50 μl lysis reagent (Tris, NaCl, 1.5% Triton X100, 2.5% NP40, 10% NaN3) and 50 μl detection solutions (20 μM mAb Alexa700-cAMP 1:1, and 48 μM Ruthenium-2-AHA-cAMP) and shaken for 2 h at room temperature. The time-resolved energy transfer is measured by a TRF reader (Evotec Technologies GmbH), equipped with a ND:YAG laser as excitation source. The plate is measured twice with the excitation at 355 nm and at the emission with a delay of 100 ns and a gate of 100 ns, total exposure time 10 s at 730 (bandwidth 30 nm) or 645 nm (bandwidth 75 nm), respectively. The FRET signal is calculated as follows: FRET=T730-Alexa730-P (T645-B645) with P=Ru730-B730/Ru645-B645, where T730 is the test well measured at […], T645 is the test well measured at 645 nm, B730 and B645 are the buffer controls at 730 nm and 645 nm, respectively. cAMP content is determined from the function of a standard curve spanning from 10 μM to 0.13 nM cAMP.
(§2) EC50 values were determined using Activity Base analysis (ID Business Solution, Limited). The EC50 values for a wide range of cannabinoid agonists generated from this assay were in agreement with the values published in the scientific literature.

Another experiment concerns the target human CB2 receptors (Homo sapiens (Human), UniProt P34972). Put plainly: cAMP assay (functional), CHO cells expressing human CB2 receptors. The settings on record: functional cAMP assay, CHO cells expressing human CB2; read-out: human CB2 EC50. It is filed as cell-based. On the procedure: as §1, §2

Chain of human CB2 receptors (P34972 whole entry): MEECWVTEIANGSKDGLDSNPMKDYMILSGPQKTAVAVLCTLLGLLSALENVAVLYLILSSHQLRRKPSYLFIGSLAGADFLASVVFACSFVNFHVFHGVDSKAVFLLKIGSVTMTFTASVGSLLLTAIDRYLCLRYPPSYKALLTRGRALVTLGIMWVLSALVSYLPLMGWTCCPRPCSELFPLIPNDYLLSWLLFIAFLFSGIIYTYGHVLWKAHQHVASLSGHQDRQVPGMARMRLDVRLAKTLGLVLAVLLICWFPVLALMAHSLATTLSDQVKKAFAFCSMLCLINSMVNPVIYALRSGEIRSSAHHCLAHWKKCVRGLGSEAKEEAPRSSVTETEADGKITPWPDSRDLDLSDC
Chain of human CB1 receptors (P21554 whole entry): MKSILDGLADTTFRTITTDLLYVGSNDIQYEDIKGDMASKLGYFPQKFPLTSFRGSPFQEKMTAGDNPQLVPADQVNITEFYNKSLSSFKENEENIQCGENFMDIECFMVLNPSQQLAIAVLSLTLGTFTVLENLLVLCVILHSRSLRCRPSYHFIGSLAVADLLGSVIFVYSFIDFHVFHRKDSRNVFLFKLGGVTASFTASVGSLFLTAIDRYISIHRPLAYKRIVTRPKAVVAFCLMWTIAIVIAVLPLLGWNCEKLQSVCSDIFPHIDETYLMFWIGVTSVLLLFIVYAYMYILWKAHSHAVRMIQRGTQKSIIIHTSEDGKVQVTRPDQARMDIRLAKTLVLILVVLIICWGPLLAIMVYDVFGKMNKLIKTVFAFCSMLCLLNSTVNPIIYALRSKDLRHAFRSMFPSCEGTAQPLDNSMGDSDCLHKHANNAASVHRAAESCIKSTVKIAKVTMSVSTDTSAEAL

As to `NC(=O)[C@@H]1CC(F)(F)CN1C(=O)c1cnc(N2CC(F)(F)C2)c(OCC(F)F)n1` [Example 42, (2S)-1-[5-(3,3-Difluoroazetidin-1-yl)-6-(2,2-difluoroethoxyl)pyrazine-2-carbonyl]-4,4-difluoro-pyrrolidine-2-carboxamide], the EC50 on human CB1 receptors is more than 10 µM; on human CB2 receptors, 310 nM.
On the same counts, the results for `CC(=O)OC1(C)CCN(C(=O)c2cnc(C3CC3)c(OCC3CC3)n2)C1` (centres unmarked) [Example 25, Acetic acid 1-(5-cyclopropyl-6-cyclopropylmethoxy-pyrazine-2-carbonyl)-3-methyl-pyrrolidin-3-yl ester] are more than 10 µM and 110 nM.
The corresponding values for `O=C(c1cnc(N2CC(F)(F)C2)c(OCC2CC2)n1)N1CCOCC12CC2` [Example 10, [6-Cyclopropylmethoxy-5-(3,3-difluoro-azetidin-1-yl)-pyrazin-2-yl]-(7-oxa-4-aza-spiro[2.5]oct-4-yl)-methanone] are more than 10 µM and 15 nM.
As to `O=C(c1cnc(C2CC2)c(OCC2CC2)n1)N1CC(F)(F)C(F)(F)C1` [Example 26, (5-Cyclopropyl-6-cyclopropylmethoxy-pyrazin-2-yl)-(3,3,4,4-tetrafluoro-pyrrolidin-1-yl)-methanone], the EC50 is more than 10 µM on human CB1 receptors and 124 nM at human CB2 receptors.
On the same counts, the results for `CC1(C)CC(C(N)=O)N(C(=O)c2cnc(C3CC3)c(OCC3CC3)n2)C1` (centres unmarked) [Example 34, 1-(5-Cyclopropyl-6-cyclopropylmethoxy-pyrazine-2-carbonyl)-4,4-dimethyl-pyrrolidine-2-carboxylic acid amide] are more than 10 µM and 1.6 nM.
On the same counts, the results for `C[C@@H]1CCCN1C(=O)c1cnc(C2CC2)c(OCC2CC2)n1` [Example 1, (5-Cyclopropyl-6-cyclopropylmethoxy-pyrazin-2-yl)-((R)-2-methyl-pyrrolidin-1-yl)-methanone] are more than 10 µM and 57.3 nM.
On the same counts, the results for `NC(=O)[C@@H]1CC(F)(F)CN1C(=O)c1cnc(N2CC(F)(F)C2)c(OCC2CC2)n1` [Example 19, (S)-1-[6-Cyclopropylmethoxy-5-(3,3-difluoro-azetidin-1-yl)-pyrazine-2-carbonyl]-4,4-difluoro-pyrrolidine-2-carboxylic acid amide] are more than 10 µM and 5.7 nM.
With `O=C(c1cnc(N2CC(F)(F)C2)c(OCC2CC2)n1)N1CCN(CCO)CC1` [Example 20, [6-Cyclopropylmethoxy-5-(3,3-difluoro-azetidin-1-yl)-pyrazin-2-yl]-[4-(2-hydroxy-ethyl)-piperazin-1-yl]-methanone], the EC50 on human CB1 receptors is more than 10 µM; at human CB2 receptors, 316 nM.
The corresponding values for `CC1(C)COCCN1C(=O)c1cnc(N2CC(F)(F)C2)c(OCC2CC2)n1` [Example 4, [6-Cyclopropylmethoxy-5-(3,3-difluoro-azetidin-1-yl)-pyrazin-2-yl]-(3,3-dimethyl-morpholin-4-yl)-methanone] are more than 10 µM and 4.3 nM.
On the same counts, the results for `O=C(c1cnc(N2CC(F)(F)C2)c(OCC2CC2)n1)N1CCC(F)(F)C1` [Example 8, [6-Cyclopropylmethoxy-5-(3,3-difluoro-azetidin-1-yl)-pyrazin-2-yl]-(3,3-difluoro-pyrrolidin-1-yl)-methanone] are more than 10 µM and 29.8 nM.
On the same counts, the results for `CC1(C)CC(C(N)=O)N(C(=O)c2cnc(C3CC3)c(OCC3CC3)n2)C1` (single isomer, unassigned; (-)) [Example 39, (−)-1-(5-Cyclopropyl-6-cyclopropylmethoxy-pyrazine-2-carbonyl)-4,4-dimethyl-pyrrolidine-2-carboxylic acid amide] are more than 10 µM and 10.3 nM.
With `O=C(c1cnc(N2CC(F)(F)C2)c(OCC2CC2)n1)N1CC(F)(F)C(F)(F)C1` [Example 30, [6-Cyclopropylmethoxy-5-(3,3-difluoro-azetidin-1-yl)-pyrazin-2-yl]-(3,3,4,4-tetrafluoro-pyrrolidin-1-yl)-methanone], the EC50 on human CB1 receptors is more than 10 µM; on human CB2 receptors it was 26.3 nM.
With `CC1(C)CN(C(=O)c2cnc(N3CC(F)(F)C3)c(OCC3CC3)n2)CCO1` [Example 13, [6-Cyclopropylmethoxy-5-(3,3-difluoro-azetidin-1-yl)-pyrazin-2-yl]-(2,2-dimethyl-morpholin-4-yl)-methanone], the figures for the EC50 on human CB1 receptors and on human CB2 receptors were more than 10 µM and 68.5 nM, respectively.
The corresponding values for `O=C(c1cnc(C2CC2)c(OCC2CC2)n1)N1CCOCC12CC2` [Example 17, (5-Cyclopropyl-6-cyclopropylmethoxy-pyrazin-2-yl)-(7-oxa-4-aza-spiro[2.5]oct-4-yl)-methanone] are more than 10 µM and 140 nM.
On the same counts, the results for `CCOC(=O)CN(C(=O)c1cnc(N2CC(F)(F)C2)c(OCC2CC2)n1)C(C)(C)C` [Example 11, {tert-Butyl-[6-cyclopropylmethoxy-5-(3,3-difluoro-azetidin-1-yl)-pyrazine-2-carbonyl]-amino}-acetic acid ethyl ester] are more than 10 µM and 6.8 nM.
On the same counts, the results for `CC1(C)CC(C(N)=O)N(C(=O)c2cnc(N3CC(F)(F)C3)c(OCC3CC3)n2)C1` (single isomer, unassigned; (-)) [Example 38, (−)-1-[6-Cyclopropylmethoxy-5-(3,3-difluoro-azetidin-1-yl)-pyrazine-2-carbonyl]-4,4-dimethyl-pyrrolidine-2-carboxylic acid amide] are more than 10 µM and 1.4 nM.
Regarding `CC1(C)CC(C(N)=O)N(C(=O)c2cnc(N3CC(F)(F)C3)c(OCC3CC3)n2)C1` (centres unmarked) [Example 35, 1-[6-Cyclopropylmethoxy-5-(3,3-difluoro-azetidin-1-yl)-pyrazine-2-carbonyl]-4,4-dimethyl-pyrrolidine-2-carboxylic acid amide], the EC50 on human CB1 receptors was more than 10 µM; on human CB2 receptors, 11.5 nM.
The corresponding values for `NC(=O)C1CSCCN1C(=O)c1cnc(N2CC(F)(F)C2)c(OCC2CC2)n1` (single isomer, unassigned; (-)) [Example 37, (−)-4-[6-Cyclopropylmethoxy-5-(3,3-difluoro-azetidin-1-yl)-pyrazine-2-carbonyl]-thiomorpholine-3-carboxylic acid amide] are more than 10 µM and 308 nM.
The corresponding values for `O=C1CN(C(=O)c2cnc(N3CC(F)(F)C3)c(OCC3CC3)n2)CCO1` [Example 23, 4-[6-Cyclopropylmethoxy-5-(3,3-difluoro-azetidin-1-yl)-pyrazine-2-carbonyl]-morpholin-2-one] are more than 10 µM and 18.4 nM.
The corresponding values for `COC(=O)[C@@H]1CCCN1C(=O)c1cnc(C2CC2)c(OCC2CC2)n1` [Example 16, (S)-1-(5-Cyclopropyl-6-cyclopropylmethoxy-pyrazine-2-carbonyl)-pyrrolidine-2-carboxylic acid methyl ester] are more than 10 µM and 191 nM.
In the case of `COCC(C)(C)N(C)C(=O)c1cnc(N2CC(F)(F)C2)c(OCC2CC2)n1` [Example 12, 6-Cyclopropylmethoxy-5-(3,3-difluoro-azetidin-1-yl)-pyrazine-2-carboxylic acid (2-methoxy-1,1-dimethyl-ethyl)-methyl-amide], the EC50 at human CB1 receptors was more than 10 µM; on human CB2 receptors, 9.2 nM.
Consider `COCC(C)(C)N(C)C(=O)c1cnc(C2CC2)c(OCC2CC2)n1` [Example 14, 5-Cyclopropyl-6-cyclopropylmethoxy-pyrazine-2-carboxylic acid (2-methoxy-1,1-dimethyl-ethyl)-methyl-amide], for which the EC50 at human CB1 receptors was more than 10 µM; on human CB2 receptors, 14.6 nM.
On the same counts, the results for `COCCN(C(=O)c1cnc(N2CC(F)(F)C2)c(OCC2CC2)n1)C(C)(C)C` [Example 3, 6-Cyclopropylmethoxy-5-(3,3-difluoro-azetidin-1-yl)-pyrazine-2-carboxylic acid tert-butyl-(2-methoxy-ethyl)-amide] are more than 10 µM and 4 nM.
On the same counts, the results for `C[C@H]1CCCN1C(=O)c1cnc(N2CC(F)(F)C2)c(OCC2CC2)n1` [Example 5, [6-Cyclopropylmethoxy-5-(3,3-difluoro-azetidin-1-yl)-pyrazin-2-yl]-((S)-2-methyl-pyrrolidin-1-yl)-methanone] are more than 10 µM and 81.7 nM.
Take `COC(=O)[C@H]1CCCN1C(=O)c1cnc(N2CC(F)(F)C2)c(OCC2CC2)n1` [Example 22, (R)-1-[6-Cyclopropylmethoxy-5-(3,3-difluoro-azetidin-1-yl)-pyrazine-2-carbonyl]-pyrrolidine-2-carboxylic acid methyl ester]: the figures for the EC50 on human CB1 receptors and at human CB2 receptors were more than 10 µM and 252 nM, respectively.
